Calls of active or inactive are those of the source. No cut-off for these calls is given here.
Key:
Type in all cases: functional, cell-based
MDA-MB-231 [1] = assay: Phototoxicity against human MDA-MB-231 cells assessed as reduction in cell viability at 4 to 8 uM irradiated with 50 mW cm'-2 UV light for 6 mins and measured after 24 hrs by CCK8 assay
MDA-MB-231 [2] = assay: Cytotoxicity against human MDA-MB-231 cells assessed as reduction in cell viability at 4 to 8 uM measured after 24 hrs by CCK8 assay
MDA-MB-231 [3] = assay: Phototoxicity against human MDA-MB-231 cells assessed as reduction in cell viability at 2 to 8 uM irradiated with 50 mW cm'-2 UV light for 6 mins and measured after 24 hrs by CCK8 assay
MDA-MB-231 [4] = assay: Cytotoxicity against human MDA-MB-231 cells assessed as reduction in cell viability at 2 to 8 uM measured after 24 hrs by CCK8 assay

Structure (SMILES): COc1cccc2c1C(=O)c1c(O)c3c(c(O)c1C2=O)C[C@@](O)(C(=O)CO)C[C@@H]3O[C@H]1C[C@H](N)[C@H](O)[C@H](C)O1
- Activity (MDA-MB-231 [1]): Active
- Activity (MDA-MB-231 [2]): Active

Structure (SMILES): COc1ccc(/C=C\c2cc(OC)c(OC)c(OC)c2)cc1O
- Activity (MDA-MB-231 [3]): Active
- Activity (MDA-MB-231 [4]): Active
